Laboratory results from paper PMC2014795 (PLoS Pathogens, 2007).

Target: T1, HLA-DR1 (DRB1*0101) (Homo sapiens, UniProt P01903+P01911, A100R/D57E/F55L/F60I/F76Y/I96L/L162R/M171V/P40L/Q125E/R42F/V115G/Y59C)
T1 construct: the extracellular portion of HLA-DR1 was produced by expression of isolated subunits in Escherichia coli inclusion bodies; made in house
Test: biochemical
Assay type: binding

| SMILES | IC50 [nM] |
| --- | --- |
| CC[C@H](C)[C@H](N)C(=O)N[C@@H](Cc1ccccc1)C(=O)N[C@@H](CCCCN)C(=O)N[C@@H](CC(N)=O)C(=O)N[C@@H](CC(N)=O)C(=O)N[C@@H](CC(=O)O)C(=O)N[C@H](C(=O)N[C@@H](CCCNC(=N)N)C(=O)N[C@H](C(=O)N[C@@H](CC(C)C)C(=O)N[C@@H](CC(C)C)C(=O)NCC(=O)N[C@@H](CC(C)C)C(=O)N[C@H](C(=O)N[C@@H](CC(C)C)C(=O)N[C@@H](Cc1ccccc1)C(=O)N[C@H](C(=O)N[C@@H](CC(C)C)C(=O)N[C@@H](C)C(=O)N[C@@H](CC(C)C)C(=O)N[C@@H](Cc1ccc(O)cc1)C(=O)O)C(C)C)[C@@H](C)CC)[C@@H](C)O)C(C)C [Peptide 322] | 1270 |
| CC[C@H](C)[C@H](NC(=O)[C@H](Cc1ccc(O)cc1)NC(=O)CNC(=O)[C@H](C)NC(=O)[C@H](CC(C)C)NC(=O)[C@H](CCC(N)=O)NC(=O)[C@H](Cc1ccc(O)cc1)NC(=O)[C@H](Cc1ccc(O)cc1)NC(=O)[C@@H](NC(=O)[C@@H](NC(=O)[C@H](CC(C)C)NC(=O)[C@H](Cc1c[nH]cn1)NC(=O)[C@@H](NC(=O)[C@H](C)N)C(C)C)[C@@H](C)CC)[C@@H](C)CC)C(=O)N[C@@H](CC(C)C)C(=O)N[C@H](C(=O)N[C@H](C(=O)N[C@@H](CC(C)C)C(=O)NCC(=O)N[C@@H](CC(C)C)C(=O)NCC(=O)O)C(C)C)[C@@H](C)O [Peptide 323] | 2170 |
| CC[C@H](C)[C@H](NC(=O)[C@H](Cc1ccccc1)NC(=O)[C@H](CC(C)C)NC(=O)[C@H](CC(C)C)NC(=O)[C@H](CS)NC(=O)[C@@H](NC(=O)[C@H](C)NC(=O)[C@H](C)NC(=O)[C@@H](NC(=O)[C@H](C)NC(=O)[C@@H](NC(=O)[C@@H](NC(=O)[C@@H](NC(=O)[C@H](Cc1ccccc1)NC(=O)[C@H](Cc1ccccc1)NC(=O)[C@@H](NC(=O)[C@H](CO)NC(=O)[C@H](CC(C)C)NC(=O)[C@H](CO)NC(=O)[C@H](CC(N)=O)NC(=O)[C@@H](N)CCSC)[C@@H](C)CC)[C@@H](C)CC)C(C)C)C(C)C)[C@@H](C)O)C(C)C)C(=O)O [Peptide 325] | 580 ± 50 |
| CC[C@H](C)[C@H](NC(=O)CNC(=O)[C@@H](NC(=O)[C@@H]1CCCN1C(=O)[C@@H](NC(=O)CNC(=O)CNC(=O)CNC(=O)[C@@H](N)CC(C)C)[C@@H](C)O)[C@@H](C)CC)C(=O)N[C@H](C(=O)N[C@@H](CO)C(=O)N[C@@H](C)C(=O)N[C@@H](CCC(N)=O)C(=O)N[C@H](C(=O)N[C@@H](CC(C)C)C(=O)N[C@@H](CO)C(=O)N[C@@H](CCC(=O)O)C(=O)N[C@@H](CCCCN)C(=O)N[C@@H](Cc1ccccc1)C(=O)N[C@H](C(=O)N[C@@H](CCC(N)=O)C(=O)O)[C@@H](C)O)C(C)C)[C@@H](C)CC [Peptide 326] | 29 ± 8 |
| CC[C@H](C)[C@H](NC(=O)[C@H](CC(N)=O)NC(=O)[C@H](CCSC)NC(=O)[C@H](CS)NC(=O)[C@H](CCC(N)=O)NC(=O)[C@@H](NC(=O)[C@@H](NC(=O)[C@H](CCCCN)NC(=O)CN)[C@@H](C)O)[C@@H](C)O)C(=O)N[C@@H](CCSC)C(=O)N[C@@H](CCC(=O)O)C(=O)N[C@@H](CO)C(=O)N[C@H](C(=O)N1CCC[C@H]1C(=O)N[C@@H](C)C(=O)N[C@@H](CC(N)=O)C(=O)N[C@H](C(=O)N[C@H](C(=O)N[C@@H](CCCCN)C(=O)N[C@@H](Cc1ccc(O)cc1)C(=O)N[C@@H](CC(C)C)C(=O)O)[C@@H](C)CC)[C@@H](C)O)[C@@H](C)CC [Peptide 327] | 11 ± 3 |
| CC[C@H](C)[C@H](NC(=O)[C@H](CCCNC(=N)N)NC(=O)[C@H](CC(=O)O)NC(=O)[C@@H](NC(=O)[C@H](CCCCN)NC(=O)[C@@H](NC(=O)[C@H](CO)NC(=O)[C@H](CCC(=O)O)NC(=O)[C@@H](NC(=O)[C@H](Cc1ccc(O)cc1)NC(=O)[C@H](CCSC)NC(=O)[C@H](Cc1ccccc1)NC(=O)[C@H](CO)NC(=O)[C@H](Cc1ccccc1)NC(=O)[C@H](CCCCN)NC(=O)[C@H](Cc1ccccc1)NC(=O)[C@H](Cc1ccccc1)NC(=O)[C@@H](N)CC(=O)O)[C@@H](C)CC)[C@@H](C)CC)C(C)C)C(=O)NCC(=O)N[C@@H](CC(=O)O)C(=O)N[C@@H](CC(N)=O)C(=O)O [Peptide 328] | 140 ± 20 |
| CC[C@H](C)[C@H](NC(=O)[C@H](CC(N)=O)NC(=O)[C@H](Cc1ccccc1)NC(=O)[C@H](CC(C)C)NC(=O)[C@H](CCCCN)NC(=O)[C@H](CC(N)=O)NC(=O)CNC(=O)[C@H](CC(=O)O)NC(=O)[C@H](CC(C)C)NC(=O)[C@@H]1CCCN1C(=O)[C@@H](NC(=O)[C@@H](NC(=O)[C@H](CCCCN)NC(=O)[C@@H](NC(=O)[C@H](CCCCN)NC(=O)[C@H](CS)NC(=O)[C@H](CO)NC(=O)[C@@H](N)Cc1c[nH]cn1)C(C)C)[C@@H](C)CC)C(C)C)C(=O)N[C@@H](C)C(=O)N[C@@H](CCC(N)=O)C(=O)N[C@@H](CCCNC(=N)N)C(=O)O [Peptide 329] | 5 ± 1 |
| CC[C@H](C)[C@H](NC(=O)[C@H](CO)NC(=O)[C@H](C)NC(=O)[C@H](CC(=O)O)NC(=O)[C@H](CC(C)C)NC(=O)[C@H](CC(C)C)NC(=O)[C@H](CO)NC(=O)[C@H](C)NC(=O)[C@@H](NC(=O)[C@H](CO)NC(=O)[C@@H](NC(=O)[C@@H](NC(=O)[C@@H](NC(=O)[C@@H](NC(=O)[C@@H](NC(=O)[C@H](CCCCN)NC(=O)[C@@H](N)CCSC)C(C)C)C(C)C)[C@@H](C)CC)C(C)C)[C@@H](C)O)C(C)C)C(=O)N[C@@H](CCC(N)=O)C(=O)N[C@@H](Cc1ccccc1)C(=O)N[C@@H](CCC(N)=O)C(=O)N[C@@H](CCCCN)C(=O)O [Peptide 332] | 380 ± 28 |
| CC[C@H](C)[C@H](N)C(=O)N[C@@H](CCCCN)C(=O)N[C@@H](CCCNC(=N)N)C(=O)NCC(=O)N[C@@H](CC(C)C)C(=O)N[C@@H](Cc1ccccc1)C(=O)N[C@@H](Cc1ccccc1)C(=O)N[C@@H](CC(C)C)C(=O)N[C@@H](CCCNC(=N)N)C(=O)N[C@@H](CC(C)C)C(=O)N[C@@H](CO)C(=O)N[C@@H](C)C(=O)N[C@@H](CC(N)=O)C(=O)N[C@@H](CC(C)C)C(=O)N[C@@H](Cc1ccccc1)C(=O)N[C@@H](CCC(=O)O)C(=O)N[C@@H](CO)C(=O)N[C@@H](CCC(N)=O)C(=O)N[C@H](C(=O)N[C@@H](CO)C(=O)N[C@@H](CO)C(=O)O)C(C)C [Peptide 333] | 68 ± 14 |
| CC[C@H](C)[C@H](NC(=O)[C@H](CCCNC(=N)N)NC(=O)[C@H](Cc1ccccc1)NC(=O)[C@H](CC(C)C)NC(=O)[C@H](Cc1ccc(O)cc1)NC(=O)[C@H](CCC(=O)O)NC(=O)[C@H](CO)NC(=O)[C@H](CC(=O)O)NC(=O)[C@@H](N)CCC(=O)O)C(=O)N[C@H](C(=O)N[C@@H](CO)C(=O)N[C@H](C(=O)N[C@H](C(=O)N[C@@H](CC(C)C)C(=O)N1CCC[C@H]1C(=O)N[C@@H](Cc1c[nH]cn1)C(=O)N[C@@H](CC(C)C)C(=O)N[C@@H](CS)C(=O)N[C@@H](CC(C)C)C(=O)N[C@@H](CC(=O)O)C(=O)N[C@@H](Cc1ccc(O)cc1)C(=O)O)C(C)C)[C@@H](C)O)C(C)C [Peptide 334] | 45 ± 8 |
| CC[C@H](C)[C@H](NC(=O)CNC(=O)[C@H](CCCCN)NC(=O)[C@@H](N)Cc1c[nH]c2ccccc12)C(=O)N[C@@H](Cc1ccc(O)cc1)C(=O)N[C@H](C(=O)N[C@@H](Cc1ccc(O)cc1)C(=O)N[C@@H](CCCNC(=N)N)C(=O)N[C@H](C(=O)N[C@H](C(=O)N[C@@H](CCCCN)C(=O)N[C@@H](CO)C(=O)N[C@@H](CO)C(=O)N[C@@H](Cc1ccccc1)C(=O)N1CCC[C@H]1C(=O)N[C@H](C(=O)N1CCC[C@H]1C(=O)N[C@H](C(=O)N[C@H](C(=O)N[C@@H](CCCCN)C(=O)N[C@@H](CO)C(=O)O)[C@@H](C)CC)[C@@H](C)O)C(C)C)[C@@H](C)CC)[C@@H](C)CC)[C@@H](C)O [Peptide 335] | 38 ± 11 |
| CC[C@H](C)[C@H](NC(=O)[C@H](Cc1ccccc1)NC(=O)[C@H](CC(C)C)NC(=O)[C@H](CC(C)C)NC(=O)[C@H](CS)NC(=O)[C@@H](NC(=O)[C@H](C)NC(=O)[C@H](C)NC(=O)[C@@H](NC(=O)[C@H](C)N)[C@@H](C)O)C(C)C)C(=O)N[C@@H](CCC(N)=O)C(=O)NCC(=O)N[C@@H](Cc1ccc(O)cc1)C(=O)N[C@@H](CO)C(=O)N[C@H](C(=O)N[C@@H](Cc1ccc(O)cc1)C(=O)N[C@@H](CCC(=O)O)C(=O)N[C@@H](CC(N)=O)C(=O)N[C@@H](Cc1ccc(O)cc1)C(=O)NCC(=O)N[C@@H](CC(N)=O)C(=O)O)[C@@H](C)CC [Peptide 336] | 280 ± 40 |
| CC[C@H](C)[C@H](NC(=O)[C@H](CCCNC(=N)N)NC(=O)[C@H](CO)NC(=O)CNC(=O)[C@H](CCC(N)=O)NC(=O)[C@H](CCC(=O)O)NC(=O)[C@@H](NC(=O)CNC(=O)[C@H](CC(C)C)NC(=O)[C@@H]1CCCN1C(=O)[C@H](CCCCN)NC(=O)[C@H](CCSC)NC(=O)[C@H](CC(C)C)NC(=O)[C@H](CC(C)C)NC(=O)[C@H](CC(C)C)NC(=O)[C@H](CC(N)=O)NC(=O)[C@H](Cc1ccccc1)NC(=O)[C@H](CCSC)NC(=O)[C@H](CC(=O)O)NC(=O)[C@H](Cc1ccc(O)cc1)NC(=O)[C@@H](N)CO)[C@@H](C)CC)C(=O)O [Peptide 337] | 28 ± 6 |
| CC[C@H](C)[C@H](N)C(=O)N[C@@H](CC(=O)O)C(=O)N[C@@H](CC(N)=O)C(=O)NCC(=O)N[C@@H](CO)C(=O)N[C@@H](CC(N)=O)C(=O)N[C@@H](CCSC)C(=O)N[C@@H](CC(C)C)C(=O)N[C@H](C(=O)N[C@@H](CC(C)C)C(=O)N[C@@H](CC(N)=O)C(=O)N1CCC[C@H]1C(=O)N[C@H](C(=O)N[C@@H](CCC(N)=O)C(=O)N[C@@H](CO)C(=O)N[C@@H](CC(=O)O)C(=O)N[C@@H](CO)C(=O)NCC(=O)N[C@H](C(=O)N[C@@H](Cc1ccc(O)cc1)C(=O)N[C@H](C(=O)O)[C@@H](C)CC)[C@@H](C)CC)[C@@H](C)O)[C@@H](C)CC [Peptide 338] | 980 ± 170 |
| CC[C@H](C)[C@H](NC(=O)[C@H](CCC(=O)O)NC(=O)[C@H](CC(=O)O)NC(=O)[C@@H](NC(=O)[C@H](CC(=O)O)NC(=O)[C@H](CC(C)C)NC(=O)[C@@H](NC(=O)[C@H](CCCCN)NC(=O)CNC(=O)[C@H](Cc1c[nH]cn1)NC(=O)[C@@H](NC(=O)[C@@H](NC(=O)[C@H](Cc1ccc(O)cc1)NC(=O)[C@H](CCSC)NC(=O)[C@H](CC(=O)O)NC(=O)[C@H](Cc1ccc(O)cc1)NC(=O)[C@@H]1CCCN1C(=O)[C@H](CC(C)C)NC(=O)[C@H](CCCNC(=N)N)NC(=O)[C@@H](N)CCCCN)[C@@H](C)CC)[C@@H](C)CC)C(C)C)[C@@H](C)CC)C(=O)N[C@@H](CC(C)C)C(=O)O [Peptide 339] | 210 ± 45 |
